Values quoted from earlier work, collected in US20250134912A1 (Theaprin Pharmaceuticals, Inc., priority 2021, published 2025).

What was measured:
[1] = tested on: critically ill children with suspected zinc deficiency; settings: in vivo, iv, 0.75 mg/kg/day
[2] = tested on: hospitalized patients with COVID-19; settings: aspirin used was not an aspirin/theanine cocrystal
patients with COVID-19 = settings: 31 patients with COVID-19, in comparison to the controlled patients
SARS-COV-2 = settings: SARS-COV-2, in vitro
[3] = at 25° C.

For `[Zn]` [Elemental zinc], the adverse effects [1] is listed as “without producing any adverse effects”.
In the case of `CC(=O)Oc1ccccc1C(=O)O` [aspirin, acetylsalicylic acid], the “mechanical ventilation, ICU admission, and in-hospital mortality” value [2] is listed as “decrease”.
For `OCCN(CCO)c1nc(N2CCCCC2)c2nc(N(CCO)CCO)nc(N3CCCCC3)c2n1` [dipyridamole, 2,6 bis-(diethanolamino)-4,8 dipiperidino-pyrimido-(5,4-d)pyrimidine], the clinical outcomes (patients with COVID-19) is given as “markedly improved”, the “lymphocyte and plasma platelet recovery” value (patients with COVID-19) is given as “increased” and the D-Dimer (patients with COVID-19; P>0.05) is given as “significantly decreased”. The “viral replication in vitro” value (SARS-COV-2) was “suppressed”.
For `[Cl-].[Cl-].[Zn+2]` [zinc chloride, Zinc chloride], the water solubility [3] is given as 432 g/100 ml water.
